According to patent US11266647B2, “Method for increasing cell proliferation in pancreatic beta cells, treatment method, and composition” (ICAHN SCHOOL OF MEDICINE AT MOUNT SINAI, priority 2016, dated 2022):
Entries after “also recorded” stand apart in the source; their conditions may differ.

Assays:
SMAD signaling = assay: Immunoblots of SMADs in whole human islets; type: cell-based
Source text: (§1) The immunoblots are representative of separate experiments in human islets from three different donors. […] Ad.shLacZ indicates a sh-adenovirus for the Ad.shDYRK1A.
Primary antisera employed were: SMAD2/3 (Cell Signaling, 8685p), p-SMAD3 (Abcam, ab52903), SMAD4 (Sc-7966, Santa Cruz), SMAD1/5/9 (ab66737, Abcam), p15INK4 (Abcam, ab53034), p16INK4a (Sc-468, Santa Cruz), p21CIP (556430, BD), p57CIP2 (2557s, Cell Signaling) and GAPDH (Sc-25778, Santa Cruz).
To ascertain whether the harmine-TGFβSF inhibitor combination affected SMAD signaling, human islets were incubated with harmine alone or in combination with two TGFβSF inhibitors: LY or ALK5 (FIG. 5A).

mouse beta cells = assay: Mouse pancreas study: beta cell Ki-67/insulin after 7 days i.p. treatment; type: in vivo, C57BL/6N mice; details: C57BL6N mice, i.p. daily 7 days, harmine 10 mg/kg, GW788388 30 mg/kg
Procedure: (§2) On day seven, treatment was begun exactly as in FIG. 9A for seven days.
Male C57BL/6N mice (12 week-old) received vehicle (saline), 10 mg kg^−1 harmine HCl, 30 mg kg^−1 GW788388 or the combination of harmine and GW788388 by intraperitoneal injection daily for 7 days. Mice were sacrificed on day 7, pancreata harvested, fixed in 10% neutral buffered formalin, paraffin embedded, and sectioned. […] A minimum of 2,000 beta cells per pancreas were counted. Investigators were blinded as to group assignments.
(§3) To evaluate the effects of harmine and TGFβ inhibitor in vivo, C57BL6N mice were administered vehicle ([…]), harmine, GW788388, or the combination of harmine plus GW788388 intraperitoneally for seven days, sacrificed, and evaluated for insulin and Ki67. […] Next, human cadaveric islets were transplanted into NOD-SCID mice.

human beta cells [1] = assay: Human islet transplant under renal capsule of NOD-SCID mice: beta cell Ki-67/insulin; type: in vivo, human islets in NOD-SCID mice; details: i.p. daily 7 days, harmine 10 mg/kg, GW788388 30 mg/kg
Procedure: as §2
Mice were allowed to recover for 7 days and then treated with vehicle (saline), 10 mg kg-1 harmine HCl, 30 mg kg-1 GW788388 or the combination of harmine and GW788388 by intraperitoneal injection daily for 7 days. Mice were sacrificed on day 7, renal grafts harvested, fixed in 10% neutral buffered formalin, paraffin embedded and sectioned.
as §3

human beta cells [2] = assay: Ki67 immunolabeling in human islets with adenoviral silencing or overexpression plus drug; type: cell-based
Procedure: as §1
Unless otherwise described, all transductions were performed using 150 moi for one hour, and studies performed 72 hours later. […] Adenoviruses encoding human SMAD6 or SMAD7 were prepared as described using cDNAs encoding SMAD6 and SMAD7 obtained from Harvard PlasmID Database.
(§4) Primary antisera were: BrdU (ab6326, Abcam), Ki67 (RM-9106-sl, Thermo Scientific, and MIB1, DAKO), p-Histone-3 (06-570, Millipore), insulin (A0564, DAKO), p-yH2AX (MA1-2022, Thermo Scientific), NKX6.1 (F55A10-c, University of Iowa), PDX1 (07-696, Millipore), MAFA (Ab26405, Abcam), Glucagon (2760s, Cell Signaling), Somatostatin (Sc-20999, Santa Cruz), Pancreatic Polypeptide (A0619, DAKO), and CK19 (Ab52625, Abcam). Species-specific mouse Alexa Fluor 488 (A-11029, Life Technologies), rat Alexa Fluor 594 (A-11007, Life Technologies), rabbit Alexa Fluor 488 (A11037, Life Technologies) or guinea pig Alexa Fluor 488 (A-11073, Life Technologies) secondary antisera were selected as appropriate.

human beta cells [3] = assay: Ki67 labeling of insulin-positive cells in dispersed human cadaveric islets; type: cell-based; details: for Ki67 labeling with other DYRK1A inhibitors in combination therapy: DYRK1A inhibitor other than harmine, with TGFβSF inhibitor
Source text: as §4

TGFβ superfamily members = assay: RNAseq of whole human islets; type: cell-based
beta cells of T2D islets = assay: Ki67 immunolabeling in islets from donors with Type 2 diabetes; details: harmine alone
Source text: Islets from normal and Type 2 diabetes adult cadaveric pancreas donors were obtained from the NIH/NIDDK-supported Integrated Islet Distribution Program and from the Alberta Diabetes Institute. Depending on the experiments performed, islets were used either as intact islets, or were first dispersed with Accutase (Sigma, St. Louis, Mo.) onto coverslips.

[4] = test system: cell cycle activators and cell cycle inhibitors; assay: qPCR of cell cycle activators and inhibitors in whole human islets
Procedure: Gene expression in dispersed islets was analyzed by real-time PCR performed on an ABI 7500 System.
Reasoning that harmine and harmine-TGFβ inhibitors (and DYRK1A and SMADs, respectively) must ultimately orchestrate cell cycle entry via cell cycle activators and cell cycle inhibitors, gene expression of cell cycle activators and inhibitors was examined in whole islets treated with vehicle, harmine, TGFβ inhibitor or the harmine-TGFβ inhibitor combination (FIGS. 6A-6B).

c1ccc(-c2n[nH]cc2-c2ccnc3ccccc23)nc1 [LY364947, 4-[3-(2-Pyridinyl)-1H-pyrazol-4-yl]-quinoline]
p-SMAD3 (SMAD3 phosphorylation), immunoblot (SMAD signaling): further reduced

O=C(NC1CCOCC1)c1ccc(-c2cc(-c3c[nH]nc3-c3ccccn3)ccn2)cc1 [GW788388, 4-(4-(3-(pyridin-2-yl)-1H-pyrazol-4-yl)pyridin-2-yl)-N-(tetrahydro-2H-pyran-4-yl)benzamide]
mouse beta cell proliferation in vivo (Ki67/insulin) (mouse beta cells): induced beta cell proliferation
human beta cell proliferation in vivo in transplanted islets (human beta cells [1]): had no effect
proliferation with adenoviral silencing of DYRK1A (human beta cells [2]; Ad.shDYRK1A plus TGFβ inhibitor): markedly accentuates proliferation

Cc1cccc(-c2n[nH]cc2-c2ccc3ncccc3n2)n1 [ALK5 inhibitor, 2-(3-(6-Methylpyridin-2-yl)-1H-pyrazol-4-yl)-1,5 napththyridine]
p-SMAD3 (SMAD3 phosphorylation), immunoblot (SMAD signaling): further reduced

O=C1NC(Nc2ccccc2)=N/C1=C\c1ccc2c(c1)OCO2 [leucettine-41]
activation of human beta cell proliferation (human beta cells [3]; DYRK1A inhibitor): able to activate human beta cell proliferation
Ki67 labeling with other DYRK1A inhibitors in combination therapy (human beta cells [3]): beneficial effects

CCN1/C(=C/C(C)=O)Sc2ccc(O)cc21 [INDY]
Ki67 labeling with other DYRK1A inhibitors in combination therapy (human beta cells [3]): beneficial effects

COc1ccc2c(c1)[nH]c1c(C)nccc12 [harmine]
p-SMAD3 (SMAD3 phosphorylation), immunoblot (SMAD signaling): reductions; also recorded: reduced
total SMAD1/5/9, immunoblot (SMAD signaling): reductions; also recorded: reduced
mouse beta cell proliferation in vivo (Ki67/insulin) (mouse beta cells): induced beta cell proliferation
human beta cell proliferation in vivo in transplanted islets (human beta cells [1]): increased this rate
BMP1 (RNAseq) (TGFβ superfamily members; Donor 1): 4 FPKM
BMP5 (RNAseq) (TGFβ superfamily members; Donor 1): 26 FPKM
GDF11 (RNAseq) (TGFβ superfamily members; Donor 1): 3 FPKM
INHA (RNAseq) (TGFβ superfamily members; Donor 1): 1 FPKM
TGFB2 (RNAseq) (TGFβ superfamily members; Donor 1): 3 FPKM
TGFBR1 (RNAseq) (TGFβ superfamily members; Donor 1): 9 FPKM
TGFBR2 (RNAseq) (TGFβ superfamily members; Donor 1): 3 FPKM
TGFB1 (RNAseq) (TGFβ superfamily members; Donor 1, row r7): 24 FPKM
TGFB1 (RNAseq), second line so named (TGFβ superfamily members; Donor 1, row r11): 62 FPKM
BMP1 (RNAseq) (TGFβ superfamily members; Donor 2): 3 FPKM
BMP5 (RNAseq) (TGFβ superfamily members; Donor 2): 20 FPKM
GDF11 (RNAseq) (TGFβ superfamily members; Donor 2): 3 FPKM
INHA (RNAseq) (TGFβ superfamily members; Donor 2): 1 FPKM
TGFB2 (RNAseq) (TGFβ superfamily members; Donor 2): 2 FPKM
TGFBR1 (RNAseq) (TGFβ superfamily members; Donor 2): 8 FPKM
TGFBR2 (RNAseq) (TGFβ superfamily members; Donor 2): 3 FPKM
TGFB1 (RNAseq) (TGFβ superfamily members; Donor 2, row r7): 19 FPKM
TGFB1 (RNAseq), second line so named (TGFβ superfamily members; Donor 2, row r11): 22 FPKM
changes in TGFβSF members on harmine treatment of human islets (TGFβ superfamily members; RNAseq): notable changes
harmine-induced proliferation with overexpression of SMADs 6 and 7 (human beta cells [2]; adenoviral overexpression, 100 moi): markedly enhanced
harmine-induced proliferation with silencing of SMADs 2, 3, and 4 (human beta cells [2]; adenoviral silencing, 150 moi each): further enhanced
proliferation with silencing of CDKN1A and/or CDKN1C (human beta cells [2]; harmine 10 μM): robust human beta cell proliferation
Ki67 immunolabeling in T2D islets (beta cells of T2D islets): increased Ki67 immunolabeling to the same degree observed in non-diabetic islet donors
expression of cell cycle activators (e.g., CDK1, CCNA1, CCNE2, CDC25A) ([4]; harmine 10 μM, LY364947 5 μM, qPCR): induced expression
cell cycle inhibitor expression other than CDKN1C ([4]; harmine alone): modest and limited effects
decline of CDKN1C (p57KIP2) expression ([4]; harmine alone, qPCR): ~50%
